What all share (type): cell-based
In one assay the target is T1, human TLR7 (Homo sapiens, UniProt Q9NYK1).
T1 construct: host or cells: HEK-Blue cells
T1 sequence (Q9NYK1 27-1049): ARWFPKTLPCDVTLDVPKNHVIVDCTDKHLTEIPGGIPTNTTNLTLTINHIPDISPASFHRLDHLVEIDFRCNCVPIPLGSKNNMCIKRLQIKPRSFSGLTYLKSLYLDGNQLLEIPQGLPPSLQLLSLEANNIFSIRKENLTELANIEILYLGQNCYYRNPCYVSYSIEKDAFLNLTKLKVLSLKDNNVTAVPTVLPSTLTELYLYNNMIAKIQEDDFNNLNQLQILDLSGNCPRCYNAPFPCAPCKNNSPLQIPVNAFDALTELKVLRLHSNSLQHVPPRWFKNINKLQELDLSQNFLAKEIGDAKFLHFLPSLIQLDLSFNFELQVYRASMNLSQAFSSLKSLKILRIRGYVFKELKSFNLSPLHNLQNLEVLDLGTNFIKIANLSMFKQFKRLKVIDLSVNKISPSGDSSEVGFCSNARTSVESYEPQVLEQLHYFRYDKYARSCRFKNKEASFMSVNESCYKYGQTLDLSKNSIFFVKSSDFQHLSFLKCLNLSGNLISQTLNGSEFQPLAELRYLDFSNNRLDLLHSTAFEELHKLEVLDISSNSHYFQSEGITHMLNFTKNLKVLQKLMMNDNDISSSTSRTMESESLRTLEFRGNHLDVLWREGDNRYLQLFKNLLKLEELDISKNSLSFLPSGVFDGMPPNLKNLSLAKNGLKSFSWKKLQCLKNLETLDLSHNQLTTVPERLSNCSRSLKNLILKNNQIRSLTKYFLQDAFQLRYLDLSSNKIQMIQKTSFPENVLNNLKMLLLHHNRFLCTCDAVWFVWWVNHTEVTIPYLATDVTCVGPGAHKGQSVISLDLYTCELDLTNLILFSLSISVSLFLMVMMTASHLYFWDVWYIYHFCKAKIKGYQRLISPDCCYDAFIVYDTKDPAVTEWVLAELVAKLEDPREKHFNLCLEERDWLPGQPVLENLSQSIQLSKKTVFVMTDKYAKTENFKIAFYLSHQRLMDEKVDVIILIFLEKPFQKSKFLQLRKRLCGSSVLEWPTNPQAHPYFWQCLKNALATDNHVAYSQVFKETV
Put plainly: TLR7 inhibition reporter assay (HEK-Blue cells, SEAP reporter, gardiquimod stimulation). Particulars: HEK-Blue cells overexpressing human TLR7, SEAP reporter, gardiquimod 7.5 μM. An outline of the steps: (§1)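 Percent inhibition is derived from SEAP signal, scaled between agonist-plus-DMSO wells and wells given a known inhibitor. Test compounds (0.05 nM–50 μM) are pre-incubated 30 min at room temperature before agonist addition (TLR7: 7.5 μM gardiquimod; TLR8: 15.9 μM R848; TLR9: 5 nM ODN2006) and 22 h culture at 37 °C.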
(In a reporter assay the amount or activity of a reporter protein is the signal.)

A further assay addresses T2, human TLR9 (Homo sapiens, UniProt Q9NR96).
T2 construct: host or cells: HEK-Blue cells
T2 sequence (Q9NR96 26-1032): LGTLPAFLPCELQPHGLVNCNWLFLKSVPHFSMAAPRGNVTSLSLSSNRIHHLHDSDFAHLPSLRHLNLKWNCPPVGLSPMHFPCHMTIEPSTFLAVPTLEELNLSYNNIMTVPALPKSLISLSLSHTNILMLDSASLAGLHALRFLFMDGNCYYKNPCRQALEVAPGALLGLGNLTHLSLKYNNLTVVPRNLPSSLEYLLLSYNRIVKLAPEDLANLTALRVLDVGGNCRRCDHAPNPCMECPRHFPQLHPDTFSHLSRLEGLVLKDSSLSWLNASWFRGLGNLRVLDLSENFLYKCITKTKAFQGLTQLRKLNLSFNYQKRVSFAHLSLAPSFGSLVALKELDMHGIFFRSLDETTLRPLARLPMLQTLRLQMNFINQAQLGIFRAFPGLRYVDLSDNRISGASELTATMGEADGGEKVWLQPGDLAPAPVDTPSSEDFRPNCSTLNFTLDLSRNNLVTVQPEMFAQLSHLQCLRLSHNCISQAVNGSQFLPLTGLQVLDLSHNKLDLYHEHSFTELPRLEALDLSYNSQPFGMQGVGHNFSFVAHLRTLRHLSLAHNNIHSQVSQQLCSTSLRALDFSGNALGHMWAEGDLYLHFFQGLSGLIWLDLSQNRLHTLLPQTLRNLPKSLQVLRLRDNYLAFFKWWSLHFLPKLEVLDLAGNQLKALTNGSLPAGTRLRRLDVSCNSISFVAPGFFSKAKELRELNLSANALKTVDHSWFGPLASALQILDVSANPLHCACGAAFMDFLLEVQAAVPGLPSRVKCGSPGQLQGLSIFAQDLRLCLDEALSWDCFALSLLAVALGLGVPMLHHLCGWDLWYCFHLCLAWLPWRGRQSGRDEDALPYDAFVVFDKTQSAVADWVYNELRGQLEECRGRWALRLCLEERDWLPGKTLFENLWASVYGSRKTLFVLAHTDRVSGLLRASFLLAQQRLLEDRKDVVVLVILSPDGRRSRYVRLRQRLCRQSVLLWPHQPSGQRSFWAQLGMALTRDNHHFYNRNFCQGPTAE
Kind of assay: TLR9 inhibition reporter assay (HEK-Blue cells, SEAP reporter, ODN2006 stimulation). Particulars: HEK-Blue cells overexpressing human TLR9, SEAP reporter, ODN2006 5 nM. An outline of the steps: as §1

A further assay deals with T3, human TLR8 (Homo sapiens, UniProt Q9NR97).
T3 construct: host or cells: HEK-Blue cells
T3 sequence (Q9NR97 27-1041): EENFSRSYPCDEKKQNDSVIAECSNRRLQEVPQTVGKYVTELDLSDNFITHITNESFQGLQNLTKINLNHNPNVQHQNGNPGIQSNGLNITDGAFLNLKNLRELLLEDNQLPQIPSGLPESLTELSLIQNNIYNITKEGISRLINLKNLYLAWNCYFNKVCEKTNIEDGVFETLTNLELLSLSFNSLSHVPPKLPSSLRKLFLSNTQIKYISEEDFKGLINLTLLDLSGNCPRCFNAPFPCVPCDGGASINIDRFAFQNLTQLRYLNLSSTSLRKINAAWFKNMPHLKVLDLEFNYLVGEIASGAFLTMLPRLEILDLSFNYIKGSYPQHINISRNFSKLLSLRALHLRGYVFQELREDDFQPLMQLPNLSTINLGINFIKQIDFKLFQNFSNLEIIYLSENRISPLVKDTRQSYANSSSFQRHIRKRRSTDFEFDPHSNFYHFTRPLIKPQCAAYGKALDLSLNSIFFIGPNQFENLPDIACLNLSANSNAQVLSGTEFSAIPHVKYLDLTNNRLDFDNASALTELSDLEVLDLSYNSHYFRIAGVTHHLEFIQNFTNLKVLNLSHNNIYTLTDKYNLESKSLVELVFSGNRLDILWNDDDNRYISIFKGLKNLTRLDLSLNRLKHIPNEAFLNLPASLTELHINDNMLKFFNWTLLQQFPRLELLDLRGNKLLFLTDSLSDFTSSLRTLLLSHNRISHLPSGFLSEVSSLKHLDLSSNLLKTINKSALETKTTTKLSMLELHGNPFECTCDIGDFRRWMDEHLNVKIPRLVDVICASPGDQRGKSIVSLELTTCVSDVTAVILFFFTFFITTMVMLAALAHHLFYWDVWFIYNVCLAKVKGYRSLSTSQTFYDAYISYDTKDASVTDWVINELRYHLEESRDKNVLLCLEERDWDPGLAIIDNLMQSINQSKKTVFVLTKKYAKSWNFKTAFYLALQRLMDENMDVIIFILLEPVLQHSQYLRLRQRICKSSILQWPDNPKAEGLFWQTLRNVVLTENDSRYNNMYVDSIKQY
Put plainly: TLR8 inhibition reporter assay (HEK-Blue cells, SEAP reporter, R848 stimulation). Particulars: HEK-Blue cells overexpressing human TLR8, SEAP reporter, R848 15.9 μM. The essentials: as §1

The term IC50 denotes the midpoint of a concentration-inhibition curve. Turning to `Cc1cc(-c2[nH]c3ccc(C4CN(C5CCOC(C)(C)C5)C4)cc3c2C(C)C)cn2ncnc12` (stereo not drawn) [Example 269, 6-(5-(1-(2,2-dimethyltetrahydro-2H-pyran-4-yl)azetidin-3-yl)-3-isopropyl-1H-indol-2-yl)-8-methyl-[1,2,4]triazolo[1,5-a]pyridine], the 50% inhibitory concentration (IC50) at human TLR7 worked out at 5 nM; at human TLR9 it was 3670 nM; at human TLR8 it was 8.3 nM.

On to `Cc1c(-c2[nH]c3ccc(C4CCC(N(C)C)CC4)cc3c2C(C)C)cn2ncnc2c1C` (stereo not drawn) [Example 105], for which the values for the IC50 against human TLR7, against human TLR9 and at human TLR8 were 0.75 nM, 2070 nM and 1.8 nM, respectively.

For `CNCCN1CCCC(c2ccc3[nH]c(-c4ccnc(C)c4)c(C(C)C)c3c2)C1` (stereo not drawn) [Example 255], the results for the 50% inhibitory concentration (IC50) at human TLR7, at human TLR9 and on human TLR8 were 19 nM, 157 nM and 5.2 nM, respectively.

On to `Cc1c(-c2[nH]c3ccc(C4CCC(NCC(=O)N(C)C)CC4)cc3c2C(C)C)cn(C)c(=O)c1C` (stereo not drawn) [Example 473], for which the results for the half-maximal inhibitory concentration (IC50) against human TLR7, against human TLR9 and at human TLR8 were 34 nM, 8970 nM and 15 nM, respectively.

In the case of `Cc1cc(-c2[nH]c3ccc(C4CCCCC4)cc3c2C(C)C)cc(C)n1` [Example 469], the IC50 at human TLR7 was found to be 1110 nM; against human TLR9, 9020 nM; against human TLR8 it was 3130 nM.

Consider `CCc1c(-c2ccnc(C)c2)[nH]c2ccc(CNC(=O)C3CC4(CCNCC4)C3)cc12` [Example 447], for which the IC50 against human TLR7 came to 4010 nM; on human TLR9 it was 1140 nM; against human TLR8 it was 14 nM.

For the compound `Cc1c(-c2[nH]c3ccc(C4CCC(NCC(=O)N(C)C)CC4)cc3c2C(C)C)cn(C)c(=O)c1C` (stereo not drawn) [Example 479], the half-inhibitory concentration (IC50) turned out to be 5 nM on human TLR7, 8610 nM on human TLR9 and 4.1 nM against human TLR8.

On to `CC(C)c1c(-c2ccnc3[nH]ncc23)[nH]c2ccc(/C=C/C3CCNCC3)cc12` [Example 422], for which the IC50 against human TLR7 came to 13 nM; against human TLR9, 457 nM; against human TLR8, 2.1 nM.

As to `Cc1c(-c2[nH]c3ccc(C4CN(C(C)C)C4)cc3c2C(C)C)cn(C)c(=O)c1C` [Example 482], the IC50 on human TLR7 is 34 nM; against human TLR9, 10300 nM; against human TLR8, 9.2 nM.

Regarding `CCc1c(-c2ccnc(C)c2)[nH]c2ccc(CN)cc12` [Example 394, [3-ethyl-2-(2-methylpyridin-4-yl)-1H-indol-5-yl]methanamine], the half-maximal inhibitory concentration (IC50) at human TLR7 was 2560 nM; against human TLR9 it was 2590 nM; at human TLR8, 1080 nM.

With `Cc1cc(-c2[nH]c3ccc(C4CCC(O)CC4)cc3c2C(C)C)ccn1` (stereo not drawn) [Example 174], the IC50 at human TLR7 is 164 nM; against human TLR9 it was greater than 50000 nM; against human TLR8 it was 518 nM.

Take `Cc1c(-c2[nH]c3ccc(C4CN(Cc5c[nH]nn5)C4)cc3c2C(C)C)cn2ncnc2c1C` [Example 551]: the IC50 against human TLR7 was determined as 2 nM; on human TLR9, 3350 nM; at human TLR8, 3.2 nM.

Take `Cc1cc(-c2[nH]c3ccc(CCN4CCS(=O)(=O)CC4)cc3c2C(C)C)cc(C)n1` [Example 401]: the IC50 against human TLR7 worked out at 27 nM; against human TLR9 it was 3430 nM; against human TLR8, 86 nM.

For `Cc1cc(-c2[nH]c3ccc(C4CCCN(CC(=O)N(C)C)C4)cc3c2C(C)C)cc(C)n1` (stereo not drawn) [Example 233], the values for the 50% inhibitory concentration (IC50) at human TLR7, at human TLR9 and against human TLR8 were 15 nM, 1350 nM and 56 nM, respectively.

On to `COc1cc(-c2[nH]c3ccc(C4CCC(N(C)C(C)C)C4)cc3c2C(C)C)cn2ncnc12` (single isomer, unassigned) [Example 276, N-isopropyl-3-(3-isopropyl-2-(8-methoxy-[1,2,4]triazolo[1,5-a]pyridin-6-yl)-1H-indol-5-yl)-N-methylcyclopentan-1-amine], for which the IC50 was 0.64 nM against human TLR7, 468 nM against human TLR9 and 0.9 nM against human TLR8.

Take `COc1cc(-c2[nH]c3ccc(C4CCC(N(C)C(C)C)C4)cc3c2C(C)C)cn2ncnc12` (single isomer, unassigned) [Example 277, N-isopropyl-3-(3-isopropyl-2-(8-methoxy-[1,2,4]triazolo[1,5-a]pyridin-6-yl)-1H-indol-5-yl)-N-methylcyclopentan-1-amine]: the results for the half-inhibitory concentration (IC50) against human TLR7, at human TLR9 and against human TLR8 were 2 nM, 801 nM and 4.4 nM, respectively.

As to `Cc1c(-c2[nH]c3ccc(C4CCC(NC5COC5)CC4)cc3c2C(C)C)cn(C)c(=O)c1C` (stereo not drawn) [Example 477], the IC50 at human TLR7 was determined as 2 nM; against human TLR9, 8210 nM; on human TLR8, 1.8 nM.

For `Cc1c(-c2[nH]c3ccc(C4CC(N)C4)cc3c2C(C)C)cn(C)c(=O)c1C` (stereo not drawn) [Example 492], the half-inhibitory concentration (IC50) on human TLR7 stood at 4 nM; against human TLR9, 6070 nM; on human TLR8 it was 1.6 nM.

In the case of `CCN(C)C1CCC(c2ccc3[nH]c(-c4cc(C)c5ncnn5c4)c(C(C)C)c3c2)CC1` (stereo not drawn) [Example 63], the IC50 against human TLR7 was 0.81 nM; at human TLR9, 5920 nM; at human TLR8 it was 5.9 nM.

Turning to `COc1ccc(-c2[nH]c3ccc(C4CCC(O)CC4)cc3c2C(C)C)cc1OC` (stereo not drawn) [Example 452], the IC50 against human TLR7 was 242 nM; against human TLR9, 46500 nM; at human TLR8, 737 nM.

Source of the values: patent US11878975B2, “Substituted indole compounds useful as TLR inhibitors” (BRISTOL-MYERS SQUIBB COMPANY, priority 2017, dated 2024).
